Experimental data as given in patent US8053475B2, “Preparation of the formaurindikarboxyl acid base and its derivations and use” (Vyzkumny Ustav Zivocisne Vyroby, V.V.I., priority 2007, dated 2011).

System: Cryptosporidium parvum
Assay: In vivo model of Tzipori (1998), modified: orally infected baby mice treated for 8 days
Set-up: species or system C57B1/6 baby mice
Conditions: aurintricarboxylic acid 50 and 100 mmol/kg/day orally in 2 equal portions at 12-hr intervals, suckling C57B1/6 mice infected with 100 000 oocysts
Description: In vivo model designed by Tzipori (1998) was used in following modification: Three-day-old, SPF C57B1/6 baby mice (Velaz, Czech Republic) were randomly assigned to groups of 8-9 mice. The baby mice were caged with their mother in sterile microisolators equipped with filter tops under standard conditions. 4-day-old mice were orally infected with 100 000 oocysts and the treatment was initiated at the same time; the daily dose of aurintricarboxylic acid 50 and […] was divided into 2 equal portions and orally administered in 12-hr intervals. A control group received phosphate buffer saline, and paromomycin (100 mg/kg/day) was used as positive control. ATA was prepared fresh before each use by dissolving the drug in aqueous solution of sodium hydroxide or potassium hydroxide at a molar ratio of 1:3 (ATA:NaOH), or in dimethylsulfoxide. […] Intensity of infection was expressed as the number of oocysts in homogenized intestinal tract in the 9th day after infection. The experiment was repeated between 2006 and 2007 and always gave very similar results.
The inihibition aurintricarboxylic acid on experimental Cryptosporidium parvum-infection in suckling C57B16 mice is graphed in FIG. 1.

O=C(O)C1=CC(=C(c2ccc(O)c(C(=O)O)c2)c2ccc(O)c(C(=O)O)c2)C=CC1=O [aurintricarboxylic acid]
tolerability of the treatment (visible signs of toxicity): tolerated without any visible signs of toxicity
